# Measurements from US20140309295A1, “ANTIEPILEPTIC, HYPOCHOLESTEROLEMIC AND NEUROPROTECTIVE COMPOUND” (NEURON BIOPHARMA, S.A., priority 2009, published 2014).
# How the values were obtained:
# [1] = system: C57BL6 mice treated with Triton 1339 (Tyloxapol); assay: Hypocholesterolemic effect in induced hyperlipidemia model (Triton 1339); assay type: in vivo; settings: 50 mg/kg i.p.
# Procedure: In order to conduct the experiment on the fasting animals, blood was extracted by ocular puncture. The plasma was obtained from said blood, in which plasma total cholesterol levels and levels of its fractions were determined prior to administration of the substances under study. […] After thirty minutes, the animals were intraperitoneally inoculated with 50 mg/kg of each of the test compounds. Seven animals were treated with the vehicle alone and were considered the control group. […] Finally, a third group of seven mice received 50 mg/Kg of NST0037. Twenty-four hours after the treatments, blood was again extracted from the fasting animals and the plasma was obtained from said blood.
# seladin-1/DHCR24 gene [2] = assay: seladin-1/DHCR24 gene expression in SK-N-MC cells (real-time quantitative RT-PCR); assay type: cell-based, human; settings: 1, 4, 10 or 40 μM, 24 hours
# Procedure: The assay was performed on human neuroblastoma SK-N-MC cells in culture from the American Type Culture Collection (ATCC), in all cases strict rules of sterility were followed and the manipulation was performed in class II biological safety cabinets following European standard EN 12469. The cells were maintained in the following culture medium: Minimum Essential Medium Eagle (MEM) supplemented with 1 mM sodium pyruvate, 2 mM L-glutamine, 0.1 mM non-essential amino acids, 0.05 mg/ml gentamicin and 10% fetal bovine serum.
# The expression of the seladin-1/DHCR24 gene (NCBI Reference Sequence: NM_014762.3) was analyzed by means of real-time quantitative RT-PCR in comparison with memantine (a drug normally used to treat Alzheimer's disease). […] The total RNA was extracted by means of the High Pure RNA Isolation kit (Roche) and the amount and quality of the RNA were analyzed by means of spectrophotometry (Infinite 200 with NanoQuant, Tecan) and viewing of the 18S and 28S bands by means of electrophoresis. The RT-PCR was performed by means of two steps, first, the mRNA was changed to cDNA using the RNA to cDNA kit (Applied Biosystem) and the gene expression was subsequently analyzed by means of TaqMan probes using the validated probes Hs00207388_m1 for seladin-1/DHCR24 and Hs99999901_s1 for 18S (used to normalize the results) in the 7500 Fast Real-Time PCR System equipment (Applied Biosystem). […]
# seladin-1/DHCR24 gene [3] = assay: seladin-1/DHCR24 gene expression in brain of wild-type mice; assay type: in vivo; settings: 50 mg/kg oral, 4 hours, male C57BL6 mice
# Procedure: A control group received only the vehicle, which consisted of 0.25% carboxy methylcellulose in physiological saline. 4 hours after the oral administrations, the animals were sacrificed under gas anesthesia with isoflurane and the brains, previously perfused with PBS, were removed and immediately afterwards frozen in liquid nitrogen. Subsequently, the total RNA of the brain was extracted by means of the High Pure RNA Isolation kit (Roche) and the amount and quality of the RNA were analyzed by means of spectrophotometry (Infinite 200 with NanoQuant, Tecan) and viewing of the 18S and 28S bands by means of electrophoresis. The RT-PCR was performed by means of two steps, first, the mRNA was changed to cDNA using the RNA to cDNA kit (Applied Biosystem) and the gene expression was subsequently analyzed by means of TagMan probes using the validated probes Mn00519071_m1 for seladin-1/DHCR24 and Hs99999901_s1 for 18S (used to normalize the results) in the 7500 Fast Real-Time PCR System equipment (Applied Biosystem). The relative amount of the gene expression was determined by using the ΔΔCt method with the SDS v2.1.1 software (Applied Biosystem); the expression of 18S was used to normalize the measurement.
# zebrafish larvae = assay: Acute toxicity assay in zebrafish larvae (24 hours); assay type: in vivo, Danio rerio; settings: for Mortality (dead larvae/total): 1 day
# Procedure: To evaluate the biosafety of compound NST0037, its toxicological effects on the zebrafish larvae model were analyzed by means of determining the safety parameters of the OECD C15 protocol.
# The fertilized eggs were obtained by natural mating of the zebrafish (Danio rerio, AB strain). A total of 8-10 pairs were used for each cross and a total of 200-250 eggs were generated on average per pair. The eggs were collected immediately after spawning and were washed with dilution water (CaCl2.2H2O2 0.29 g/L, MgSO4.7H2O2 0.12 g/L, NaHCO3 0.065 g/L, KCl 0.006 g/L), the pH being adjusted to 7.8±0.2, in accordance with EC Regulation 440/2008, method C.1, and were deposited in a Petri dish.
# The embryos were developed normally until 96 hours post-fertilization in their growth medium. […] […]. Each experiment was performed in triplicate.
# The studies were conducted for 24 hours of treatment, thus performing an acute toxicity assay. […].
# After the time of exposure of the substances under study, the record of the mortality of the larvae was determined. […].
# […]. The percentage of healthy larvae was defined as the number of live larvae without symptoms of external physiopathological anomalies (morphological and/or behavioral), the latter being a parameter determining the biosafety of a substance under study and is complementary to the survival rates and to LD50. […].
# The anomalies recorded in the study are described below: • Thrombosis in the yolk sac: it is a clot inside a blood vessel, in this case of any vessel irrigating the yolk. • Cardiac thrombosis: occurs in a cardiac vessel. • Cardiac edema (or hydrops): accumulation of fluid in the intercellular tissue space and also in the cavities of the organism. In the case of the heart, it causes the accumulation of fluid in the pericardial sac.
# adult zebrafish = assay: Single-dose toxicity assay (24 hours exposure in water) in adult zebrafish; settings: 14 days post-treatment
# Text: Subsequently they were fed like the rest of the animals. • Weight of the animals: they were weighed at time 0 (before the treatment), at 7 and at 14 days post-treatment.
# In this case, the weight of the animals of the different study groups at three established times: before starting the treatments (0 dpt), at day 7 post-treatment and at day 14 post-treatment, was used as a toxicity parameter. […] To that end, the fish were sacrificed at 14 days post-treatment (previously anesthetized) and the samples (whole fish) were included in paraffin. The hematoxylin-eosin staining was subsequently performed in order to conduct the histopathological studies, obtaining a minimum of 6 longitudinal sections per animal, for the purpose of collecting different study areas of the same organ. The following organs were studied: brain, kidney, pancreas, intestine, eye, gills, ovary, testicle, muscle and liver.
smiles,measurement,setting,value
"CCC(CC)C(=O)O[C@H]1C[C@@H](C)C=C2C=C[C@H](C)[C@H](CC[C@@H]3C[C@@H](O)CC(=O)O3)[C@H]21 [NST0037, (1S,2S,6R,8S,8aR)-1,2,6,7,8,8a-hexahydro-3,7-dimethyl-8-[2-[(2R,4R)-tetrahydro-4-hydroxy-6-oxo-2H-pyran-2-yl]ethyl]-1-naphthalenyl-2-ethyl-butyrate]",HDL-c levels,[1]; 24 hours after Triton 1339,not being changed
same,LDL-c levels,[1]; 24 hours after Triton 1339,reduction being statistically significant
same,VLDL-c levels,[1]; 24 hours after Triton 1339,Only simvastatin reduced
same,esterified cholesterol (EC) levels,[1]; 24 hours after Triton 1339,reduced
same,free cholesterol (FC) levels,[1]; 24 hours after Triton 1339,reduced the levels of this fraction in a similar manner
same,total cholesterol increase,[1]; 24 hours after Triton 1339 500 mg/kg,"hypocholesterolemic effect, being statistically significant"
same,seladin-1/DHCR24 gene expression,seladin-1/DHCR24 gene [2],increase of seladin-1/DHCR24 gene expression
same,seladin-1/DHCR24 gene expression in brain,seladin-1/DHCR24 gene [3],increased the gene expression
same,Mortality (dead larvae/total),zebrafish larvae; Dose 10 mg/Kg,0/30
same,Mortality (dead larvae/total),zebrafish larvae; Dose 30 mg/Kg,0/30
same,Mortality (dead larvae/total),zebrafish larvae; Dose 100 mg/Kg,0/30
same,Mortality (dead larvae/total),zebrafish larvae; Dose 300 mg/Kg,0/30
same,Mortality (dead larvae/total),zebrafish larvae; Dose 1000 mg/Kg,0/30
same,percentage of healthy larvae,"zebrafish larvae; highest study dose (1000 mg/Kg), 24 hours",67.9±3.3%
same,histopathology: intestine,adult zebrafish; 2000 mg/Kg,Atrophy signs in the intestinal villi
same,histopathology: liver,adult zebrafish; 2000 mg/Kg,discrete inflammation areas
same,weight of the animals,"adult zebrafish; 2000 mg/kg, 24 hours exposure in water",did not modify the weight
